Measured values from BindingDB's records for doi:10.7270/Q2PR7TCX (The Scripps Research Institute Molecular Screening Center, 2007).
Structures can show the parent of a compound that is named as a salt.

biological target: Steroidogenic factor 1 (Homo sapiens, UniProt Q13285); experiment: SF-1 inhibitors in Gal4 reporter counter-screen, dose response, counter-screen for RORA inhibitor project, cell-based, CHO-K1, Gal4-SF-1 LBD, luciferase luminescence (AID 611); conditions: not given
Sequence (Q13285 whole entry, the tested form may be a part): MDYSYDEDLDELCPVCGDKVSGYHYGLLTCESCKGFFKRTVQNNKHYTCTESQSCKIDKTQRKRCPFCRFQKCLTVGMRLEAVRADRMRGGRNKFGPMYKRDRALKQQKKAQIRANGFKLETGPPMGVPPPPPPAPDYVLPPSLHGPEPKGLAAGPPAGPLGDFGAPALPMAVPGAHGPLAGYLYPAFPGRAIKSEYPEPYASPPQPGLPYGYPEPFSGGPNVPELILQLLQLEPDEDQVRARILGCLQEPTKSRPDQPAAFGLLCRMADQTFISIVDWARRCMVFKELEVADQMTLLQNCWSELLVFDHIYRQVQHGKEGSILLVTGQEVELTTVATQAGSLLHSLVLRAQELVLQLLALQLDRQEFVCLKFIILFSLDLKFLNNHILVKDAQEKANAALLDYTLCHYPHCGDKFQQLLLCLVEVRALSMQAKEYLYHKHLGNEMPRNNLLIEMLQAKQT

Row | Structure (SMILES) | IC50 [µM]
1 | CCC(NC(=O)Nc1nnc(C(F)(F)F)s1)(C(F)(F)F)C(F)(F)F | 2.74
2 | O=S1(=O)C=C(Sc2nnc(-c3ccccc3)o2)c2ccccc21 | 6.04
3 | CCc1ccc(-c2nnn(CCC(=O)OC)n2)cc1 | 6.34
4 | Cn1ncnc2c(=O)n(C)c(=O)nc1-2 | 0.633
5 | O=C1c2ccccc2C(=O)C1c1ccc2ccccc2n1 | 4.75
6 | CC(C)OCCCNc1ncnc2c1[nH]c1ccc(F)cc12 | 6.34
7 | CCCCOC(=O)c1[nH]c2c(c1C)C(=O)CC(c1cc(OC)c(OC)c(OC)c1)C2 (centres undefined) | 6.24
8 | [H][C@@]12C[N@@](CCc3c([nH]c4ccccc34)[C@@](C(=O)OC)(c3cc4c(cc3OC)N(C=O)[C@]3([H])[C@]45CC[N@@]4CC=C[C@@](CC)([C@@H](OC(C)=O)[C@]3(O)C(=O)OC)[C@]45[H])C1)C[C@](O)(CC)C2 | 2.11
9 | Clc1ccc(-c2nnc(NC3=NCCCCC3)o2)cc1 | > 3.67
10 | Cc1ccc(N=C2Nc3ccccc3CS2)cc1 | > 11
11 | CC(NC(=O)Nc1nnc(C(F)(F)F)s1)(C(F)(F)F)C(F)(F)F [1-(1,1,1,3,3,3-hexafluoro-2-methylpropan-2-yl)-3-[5-(trifluoromethyl)-1,3,4-thiadiazol-2-yl]urea] | 5.6
12 | O=C(CSc1nnc(COc2cccc3cccnc23)o1)N1CCc2ccccc21 [1-(2,3-Dihydro-indol-1-yl)-2-[5-(quinolin-8-yloxymethyl)-[1,3,4]oxadiazol-2-ylsulfanyl]-ethanone] | 3.97
13 | CCCS(=O)(=O)c1nnnn1-c1cccc(OC)c1 [1-(3-methoxyphenyl)-5-(propylsulfonyl)-1H-tetrazole] | 7.63
14 | Cc1ccc(-c2nsc3c(N4CCC(C(N)=O)CC4)ncnc23)cc1 [1-(3-p-Tolyl-isothiazolo[4,5-d]pyrimidin-7-yl)-piperidine-4-carboxylic acid amide] | 1.53
15 | CC(C)NCC(O)Cn1c2c(c3ccccc31)CCc1c-2cnn1-c1ccccc1 (centres undefined) [1-(3-phenyl-4,5-dihydropyrazolo[4,3-a]carbazol-10-yl)-3-(propan-2-ylamino)-2-propanol] | 8.75
16 | CCOc1ccc(S(=O)(=O)n2cnc3cc(C)c(C)cc32)cc1 [1-(4-Ethoxy-benzenesulfonyl)-5,6-dimethyl-1H-benzoimidazole] | > 11
17 | Cc1cccc(NC(=O)Nc2ccc(C#N)cc2)n1 [1-(4-cyanophenyl)-3-(6-methyl-2-pyridinyl)urea] | 6.32
18 | COc1ccc(O)c(C(=O)CC(=O)c2ccc(F)cc2)c1 [1-(4-fluorophenyl)-3-(2-hydroxy-5-methoxy-phenyl)propane-1,3-dione] | > 11
19 | COc1ccc(-n2ncc3c(N4CCCCC4)ncnc32)cc1 [1-(4-methoxyphenyl)-4-(1-piperidinyl)pyrazolo[3,4-d]pyrimidine] | 2
20 | COc1cc(CSc2nnnn2-c2ccc(C)cc2)cc(OC)c1OC [1-(4-methylphenyl)-5-[(3,4,5-trimethoxybenzyl)thio]-1H-tetrazole] | 4.52
21 | CCn1nc(-c2ccccc2)nc2c(=O)n(C)c(=O)nc1-2 [1-Ethyl-6-methyl-3-phenyl-1H-pyrimido[5,4-e][1,2,4]triazine-5,7-dione] | 3.72
22 | COCCn1c(C)cc(C(=O)CSc2nnc(C)s2)c1C [1-[1-(2-methoxyethyl)-2,5-dimethyl-1H-pyrrol-3-yl]-2-[(5-methyl-1,3,4-thiadiazol-2-yl)thio]ethanone] | 3.46
23 | CCOC(=O)C1CCN(c2ncnc3c2cnn3-c2ccc(Cl)cc2)CC1 [1-[1-(4-chlorophenyl)-4-pyrazolo[3,4-d]pyrimidinyl]-4-piperidinecarboxylic acid ethyl ester] | 5.75
24 | Cc1csc(SCC(=O)c2cc(C)n(Cc3cccs3)c2C)n1 [1-[2,5-dimethyl-1-(2-thenyl)pyrrol-3-yl]-2-[(4-methylthiazol-2-yl)thio]ethanone] | 9.88
25 | Cc1cc(-n2c(C)cc(C(=O)CSc3ncnc4ccccc34)c2C)no1 [1-[2,5-dimethyl-1-(5-methyl-1,2-oxazol-3-yl)pyrrol-3-yl]-2-quinazolin-4-ylsulfanyl-ethanone] | 6.03

Row | Structure (SMILES) | IC50 [µM]
26 | Cc1ccc(-c2csc3ncnc(Sc4nnc(CN5CCCCCC5=O)o4)c23)cc1 [1-[[5-[5-(4-methylphenyl)thieno[2,3-d]pyrimidin-4-yl]sulfanyl-1,3,4-oxadiazol-2-yl]methyl]azepan-2-one] | 7.12
27 | Nc1nnnn1N=C/C(Br)=C/c1ccccc1 [1-[[(Z)-2-bromanyl-3-phenyl-prop-2-enylidene]amino]-1,2,3,4-tetrazol-5-amine] | 4.19
28 | C=CS(=O)(=O)c1ccc(Oc2ccc(S(=O)(=O)C=C)cc2)cc1 [1-ethenylsulfonyl-4-(4-ethenylsulfonylphenoxy)benzene] | 5.29
29 | CCn1nc(-c2cccs2)nc2c(=O)n(C)c(=O)nc1-2 [1-ethyl-6-methyl-3-thiophen-2-yl-pyrimido[5,4-e][1,2,4]triazine-5,7-dione] | 2.19
30 | c1ccc(-n2ncc3c(N4CCCCC4)ncnc32)cc1 [1-phenyl-4-(1-piperidinyl)pyrazolo[3,4-d]pyrimidine] | 4.47
31 | Cc1ccc(-c2cn3nc(C)c(C)nc3n2)cc1 [2,3-dimethyl-6-(4-methylphenyl)imidazo[1,2-b][1,2,4]triazine] | 4.13
32 | COc1ccc(C(=O)Nc2ccc(C)cn2)c(OC)c1 [2,4-dimethoxy-N-(5-methylpyridin-2-yl)benzamide] | > 1.22
33 | O=C(c1ccccc1)C(CCC(CN1CCOCC1)C(=O)c1ccccc1)CN1CCOCC1 (centres undefined) [2,5-bis(4-morpholinylmethyl)-1,6-diphenylhexane-1,6-dione;hydrochloride] | 18
34 | Cc1oc2cc3c(C(=O)OCCN(C)C)c(C)oc3cc2c1C(=O)OCCN(C)C [2,6-Dimethyl-benzo[1,2-b;4,5-b']difuran-3,7-dicarboxylic acid bis-(2-dimethylamino-ethyl) ester] | 0.892
35 | c1ccc(-c2cccc(-c3ccccn3)n2)nc1 [2,6-bis(2-pyridinyl)pyridine] | 2.81
36 | O=NC1c2cc(S(=O)(=O)N3CCCCC3)ccc2-c2ccc(S(=O)(=O)N3CCCCC3)cc21 [2,7-Bis-(piperidine-1-sulfonyl)-fluoren-9-one oxime] | 2.14
37 | O=c1c2ccccc2cnn1-c1nc2ccccc2s1 [2-(1,3-benzothiazol-2-yl)-1-phthalazinone] | 0.728
38 | c1ccc2nc(-c3nc4ccccc4o3)ccc2c1 [2-(1,3-benzoxazol-2-yl)quinoline] | 5.39
39 | COc1ccc(OC)c(NC(=O)CSc2nnnn2-c2ccc3c(c2)OCO3)c1 [2-(1-Benzo[1,3]dioxol-5-yl-1H-tetrazol-5-ylsulfanyl)-N-(2,5-dimethoxy-phenyl)-acetamide] | 2.69
40 | CCn1c(C)nc2cc(-c3nc4n(n3)Cc3ccccc3-4)ccc21 [2-(1-ethyl-2-methyl-5-benzimidazolyl)-5H-[1,2,4]triazolo[5,1-a]isoindole] | > 0.00503
41 | CCN1C=CC(=C2C(=O)c3ccccc3C2=O)C=C1 [2-(1-ethyl-4-pyridinylidene)indene-1,3-dione] | 1.34
42 | c1c2c(cc3sc(N4CCCCC4)nc13)OCCO2 [2-(1-piperidinyl)-6,7-dihydro-[1,4]dioxino[2,3-f][1,3]benzothiazole] | > 3.67
43 | CCCN1C=CC(=C2C(=O)c3ccccc3C2=O)C=C1 [2-(1-propyl-4-pyridinylidene)indene-1,3-dione] | 0.431
44 | Cc1cnc(NC(=O)COc2ccccc2Cl)s1 [2-(2-chloranylphenoxy)-N-(5-methyl-1,3-thiazol-2-yl)ethanamide] | 5.63
45 | Cn1c(-c2ccco2)nc2cc3ccccc3cc21 [2-(2-furanyl)-3-methylbenzo[f]benzimidazole] | > 3.67
46 | c1ccc2c(c1)CCN(c1nc3cc4c(cc3s1)OCCO4)C2 [2-(3,4-dihydro-1H-isoquinolin-2-yl)-6,7-dihydro-[1,4]dioxino[2,3-f][1,3]benzothiazole] | 4.35
47 | COc1ccc(CC(=O)Nc2cccc(-c3nnc(-c4cccc(C)c4)o3)c2)cc1OC [2-(3,4-dimethoxyphenyl)-N-[3-[5-(3-methylphenyl)-1,3,4-oxadiazol-2-yl]phenyl]acetamide] | 5.9
48 | Nc1cccc(-c2nc3ccc(N)cc3s2)c1 [2-(3-Amino-phenyl)-benzothiazol-6-ylamine] | > 3.67
49 | O=C(CSC1=NCCS1)Nc1ccnc2ccccc12 [2-(4,5-dihydro-1,3-thiazol-2-ylsulfanyl)-N-quinolin-4-yl-ethanamide] | 5.95
50 | Cc1nnc(Sc2nc(Sc3nnc(C)s3)nc(N3CCN(C)CC3)n2)s1 [2-(4-Methyl-piperazin-1-yl)-4,6-bis-(5-methyl-[1,3,4]thiadiazol-2-ylsulfanyl)-[1,3,5]triazine] | 3.55

same assay, conditions: inactive by the depositor's call

Row | Structure (SMILES) | IC50 [µM]
51 | COc1ccc2[nH]c(=O)c3c(c2c1)OC(C)(C)C=C3 | 16.5
52 | Cc1ccc2[nH]c3c(N4CCN(Cc5ccc6c(c5)OCO6)CC4)ncnc3c2c1 | 10.2
53 | CCCNc1nc2c(c(=O)n(C)c(=O)n2C)n1Cc1cccc(C)c1 [1,3-Dimethyl-7-(3-methyl-benzyl)-8-propylamino-3,7-dihydro-purine-2,6-dione] | 21.5
54 | Cc1cc(C)n2nc(SCC(=O)c3cc(C)n(-c4cc(C)on4)c3C)nc2n1 [1-[2,5-dimethyl-1-(5-methyl-1,2-oxazol-3-yl)pyrrol-3-yl]-2-[(5,7-dimethyl-[1,2,4]triazolo[1,5-a]pyrimidin-2-yl)sulfanyl]ethanone] | 16.8
55 | CC(=O)c1ccc(N2CCN(c3ccc(C(F)(F)F)cn3)CC2)cc1 [1-[4-[4-[5-(trifluoromethyl)-2-pyridinyl]-1-piperazinyl]phenyl]ethanone] | 11.4
56 | CC(=O)N1CCc2cc(S(=O)(=O)NCCC3=CCCCC3)ccc21 [1-acetyl-N-(2-cyclohex-1-en-1-ylethyl)indoline-5-sulfonamide] | 17.6
57 | COc1cc2c(cc1OC)C(C)N(C(=O)c1cc3ccccc3o1)CC2 (centres undefined) [1-benzofuran-2-yl-(6,7-dimethoxy-1-methyl-3,4-dihydro-1H-isoquinolin-2-yl)methanone] | 19
58 | O=C1c2ccccc2S(=O)(=O)N1Cc1nc2ccccc2s1 [2-(1,3-benzothiazol-2-ylmethyl)-1,1-bis(oxidanylidene)-1,2-benzothiazol-3-one] | 10.6
59 | CC1(C)CC(=O)C2=C(C1)Oc1nc3ccccc3cc1C2C(C#N)C#N (centres undefined) [2-(1-keto-3,3-dimethyl-4,12-dihydro-2H-chromeno[2,3-b]quinolin-12-yl)malononitrile] | 12.2
